# Assay results from patent US20240228535A1 (priority 2022, published 2024).
# Molecular target: SARS2 coronavirus 3CL protease (Severe acute respiratory syndrome coronavirus 2, UniProt P0DTD1)
# Assay: biochemical
# Details: 5 nM enzyme, 30 min pre-incubation with compound, 15 μM peptide substrate, 4 h at room temperature; read-out: FRET Potency (nM); IC50 values in the SARS2 3CLPro FRET assay
row,Compound,IC50
1,"CNC(=O)C(=O)[C@H](C[C@@H]1C[C@@H](C)NC1=O)NC(=O)c1cc(Cl)ccc1NC(=O)c1cccc(C(F)(F)F)n1 [Example 26, N-[4-chloro-2-[[(1S)-3-(methylamino)-1-[[(3S,5R)-5-methyl-2-oxo-pyrrolidin-3-yl]methyl]-2,3-dioxo-propyl]carbamoyl]phenyl]-6-(trifluoromethyl)pyridine-2-carboxamide]",17.4 nM
2,"O=C(CC(F)(F)F)Nc1ccc(Cl)cc1C(=O)N[C@@H](C[C@@H]1CCNC1=O)C(=O)C(=O)NC1CC1 [Example 38, 5-chloro-N-[(1S)-3-(cyclopropylamino)-2,3-dioxo-1-[[(3S)-2-oxopyrrolidin-3-yl]methyl]propyl]-2-(3,3,3-trifluoropropanoylamino) benzamide]",10.5 nM
3,"CNC(=O)C(=O)[C@H](C[C@@H]1CCNC1=O)NC(=O)c1cc(Cl)ccc1NC(=O)OC(C)(C)C [Example 142, tert-butyl N-[4-chloro-2-[[(1S)-3-(methylamino)-2,3-dioxo-1-[[(3S)-2-oxopyrrolidin-3-yl]methyl]propyl]carbamoyl]phenyl]carbamate]",41.1 nM
4,"C[C@@H]1C[C@@H](C[C@H](NC(=O)c2cc(Cl)ccc2NC(=O)CC(F)(F)F)C(=O)C(=O)NC2CC2)C(=O)N1 [Example 42, 5-chloro-N-[(1S)-3-(cyclopropylamino)-1-[[(3S,5R)-5-methyl-2-oxo-pyrrolidin-3-yl]methyl]-2,3-dioxo-propyl]-2-(3,3,3-trifluoropropanoylamino) benzamide]",9.8 nM
5,"CNC(=O)C(=O)[C@H](C[C@@H]1C[C@@H](C)NC1=O)NC(=O)c1cc(Cl)ccc1NC(=O)C(C)c1ccnc(C(F)(F)F)c1 (stereo partly drawn) [Example 228, 5-chloro-N-[(1S)-3-(methylamino)-1-[[(3S,5R)-5-methyl-2-oxo-pyrrolidin-3-yl]methyl]-2,3-dioxo-propyl]-2-[2-[2-(trifluoromethyl)-4-pyridyl]propanoylamino] benzamide]",6.1 nM
6,"O=C(NC1CC1)C(=O)[C@H](C[C@@H]1CCNC1=O)NC(=O)c1cc(Cl)ccc1NC(=O)C12CC(F)(C1)C2 [Example 37, N-[4-chloro-2-[[(1S)-3-(cyclopropylamino)-2,3-dioxo-1-[[(3S)-2-oxopyrrolidin-3-yl]methyl]propyl]carbamoyl]phenyl]-3-fluoro-bicyclo[1.1.1]pentane-1-carboxamide]",10.7 nM
7,"CNC(=O)C(=O)[C@H](C[C@@H]1C[C@@H](C)NC1=O)NC(=O)c1cc(C#N)ccc1NC(=O)OC1CC1 [Example 131, cyclopropyl N-[4-cyano-2-[[(1S)-3-(methylamino)-1-[[(3S,5R)-5-methyl-2-oxo-pyrrolidin-3-yl]methyl]-2,3-dioxo-propyl]carbamoyl]phenyl] carbamate]",36.5 nM
8,"[2H]C([2H])([2H])OC(=O)Nc1ccc(Cl)cc1C(=O)N[C@@H](C[C@@H]1C[C@@H](C)NC1=O)C(=O)C(=O)NC [Example 112, trideuteriomethyl N-[4-chloro-2-[[(1S)-3-(methylamino)-1-[[(3S,5R)-5-methyl-2-oxo-pyrrolidin-3-yl]methyl]-2,3-dioxo-propyl]carbamoyl]phenyl] carbamate]",6 nM
9,"C[C@@H]1C[C@@H](C[C@H](NC(=O)c2cc(Cl)ccc2NC(=O)[C@H]2CC2(F)F)C(=O)C(=O)NC2CC2)C(=O)N1 [Example 8, 5-chloro-N—((S)-4-(cyclopropylamino)-1-((3S,5R)-5-methyl-2-oxopyrrolidin-3-yl)-3,4-dioxobutan-2-yl)-2-((R)-2,2-difluorocyclopropane-1-carboxamido)benzamide]",10.1 nM
10,"CNC(=O)C(=O)[C@H](C[C@@H]1C[C@@H](C)NC1=O)NC(=O)c1cc(Cl)ccc1NC(=O)C(C)c1ccc(C(F)(F)F)nc1 (single isomer, unassigned) [Example 230]",7 nM
11,"CNC(=O)C(=O)[C@H](C[C@@H]1C[C@@H](C)NC1=O)NC(=O)c1cc(F)ccc1NC(=O)c1ccnc(C(F)(F)F)c1 [Example 207, N-[4-fluoro-2-[[(1S)-3-(methylamino)-1-[[(3S,5R)-5-methyl-2-oxo-pyrrolidin-3-yl]methyl]-2,3-dioxo-propyl]carbamoyl]phenyl]-2-(trifluoromethyl)pyridine-4-carboxamide]",11.4 nM
12,"CNC(=O)C(=O)[C@H](C[C@@H]1C[C@@H](C)NC1=O)NC(=O)c1cc(Cl)c(F)cc1NC(=O)c1ccc(C(F)(F)F)nc1 [Example 223, N-[4-chloro-5-fluoro-2-[[(1S)-3-(methylamino)-1-[[(3S,5R)-5-methyl-2-oxo-pyrrolidin-3-yl]methyl]-2,3-dioxo-propyl]carbamoyl]phenyl]-6-(trifluoromethyl)pyridine-3-carboxamide]",9 nM
13,"C[C@@H]1C[C@@H](C[C@H](NC(=O)c2cc(Cl)ccc2NC(=O)c2ccnc(C(F)(F)F)c2)C(=O)C(=O)NC2CC2)C(=O)N1 [Example 2, N-(4-chloro-2-(((S)-4-(cyclopropylamino)-1-((3S,5R)-5-methyl-2-oxopyrrolidin-3-yl)-3,4-dioxobutan-2-yl)carbamoyl)phenyl)-2-(trifluoromethyl)isonicotinamide]",5.6 nM
14,"CNC(=O)C(=O)[C@H](C[C@@H]1C[C@@H](C)NC1=O)NC(=O)c1cc(Cl)ccc1NC(=O)c1cc(C(F)(F)F)ccn1 [Example 72, N-[4-chloro-2-[[(1S)-3-(methylamino)-1-[[(3S,5R)-5-methyl-2-oxo-pyrrolidin-3-yl]methyl]-2,3-dioxo-propyl]carbamoyl]phenyl]-4-(trifluoromethyl)pyridine-2-carboxamide]",6.3 nM
15,"CNC(=O)C(=O)[C@H](C[C@@H]1C[C@@H](C)NC1=O)NC(=O)c1cc(Cl)ccc1NC(=O)OCC(F)(F)F [Example 181, 2,2,2-trifluoroethyl N-[4-chloro-2-[[(1S)-3-(methylamino)-1-[[(3S,5R)-5-methyl-2-oxo-pyrrolidin-3-yl]methyl]-2,3-dioxo-propyl]carbamoyl]phenyl] carbamate]",7.2 nM
16,"O=C(NC1CC1)C(=O)[C@H](C[C@@H]1CCNC1=O)NC(=O)c1cc(Cl)ccc1NC(=O)c1cncc(C(F)(F)F)c1 [Example 71, N-[4-chloro-2-[[(1S)-3-(cyclopropylamino)-2,3-dioxo-1-[[(3S)-2-oxopyrrolidin-3-yl]methyl]propyl]carbamoyl]phenyl]-5-(trifluoromethyl)pyridine-3-carboxamide]",6.6 nM
17,"CCOC(=O)Nc1ccc(Cl)cc1C(=O)N[C@@H](C[C@@H]1CCNC1=O)C(=O)C(=O)NC [Example 111, ethyl N-[4-chloro-2-[[(1S)-3-(methylamino)-2,3-dioxo-1-[[(3S)-2-oxopyrrolidin-3-yl]methyl]propyl]carbamoyl]phenyl]carbamate]",5.8 nM
18,"CNC(=O)C(=O)[C@H](C[C@@H]1C[C@@H](C)NC1=O)NC(=O)c1cc(OC(F)F)cnc1NC(=O)c1cccc(C(F)(F)F)c1 [Example 18, 5-(difluoromethoxy)-N-[(1S)-3-(methylamino)-1-[[(3S,5R)-5-methyl-2-oxo-pyrrolidin-3-yl]methyl]-2,3-dioxo-propyl]-2-[[3-(trifluoromethyl)benzoyl]amino]pyridine-3-carboxamide]",31.1 nM
19,"CNC(=O)C(=O)[C@H](C[C@@H]1C[C@@H](C)NC1=O)NC(=O)c1cc(Cl)c(Cl)cc1NC(=O)OC1CC1 [Example 170, cyclopropyl N-[4,5-dichloro-2-[[(1S)-3-(methylamino)-1-[[(3S,5R)-5-methyl-2-oxo-pyrrolidin-3-yl]methyl]-2,3-dioxo-propyl]carbamoyl]phenyl] carbamate]",10.5 nM
20,"CNC(=O)C(=O)[C@H](C[C@@H]1C[C@@H](C(F)(F)F)NC1=O)NC(=O)c1cc(Cl)ccc1NC(=O)C1CC(F)(F)C1 [Example 41, 5-chloro-2-[(3,3-difluorocyclobutanecarbonyl)amino]-N-[(1S)-3-(methylamino)-2,3-dioxo-1-[[(3R,5S)-2-oxo-5-(trifluoromethyl)pyrrolidin-3-yl]methyl]propyl]benzamide]",9.9 nM
21,"CNC(=O)C(=O)[C@H](C[C@@H]1C[C@@H](C)NC1=O)NC(=O)c1cc(Cl)ccc1NC(=O)c1cnc(C(F)(F)F)nc1 [Example 215, N-[4-chloro-2-[[(1S)-3-(methylamino)-1-[[(3S,5R)-5-methyl-2-oxo-pyrrolidin-3-yl]methyl]-2,3-dioxo-propyl]carbamoyl]phenyl]-2-(trifluoromethyl)pyrimidine-5-carboxamide]",10.1 nM
